Assay results from patent publication EP4800015A1, “AZABICYCLO DERIVATIVE AND PREPARATION METHOD THEREFOR, AND USE” (Zhejiang Hisun Pharmaceutical Co., Ltd., priority 2023, dated 2025).

Legend:
[1] = Pharmacokinetic test in mice after intragastric administration; format: in vivo; conditions: male, mouse, plasma, ICR mice, Oral (10 mg/kg); for AUC(0-t): read-out: Area under curve AUC0-t; for half-life: read-out: Half-life T1/2 (converted); for Cmax: read-out: Plasma concentration Cmax
Description: ICR mice were used as test animals, the plasma concentrations of the control compound HRO761 and the compounds of the present disclosure at different time points after intragastric administration were determined by LC/MS/MS method, and the pharmacokinetic characteristics of the compounds of the present disclosure in mice were studied.
ICR mice, male, 30.8 to 38.0 g, purchased from Vital River Laboratory Animal Technology Co., Ltd.
An appropriate amount of the test compound was weighed, and an appropriate amount of DMA (N,N-dimethylacetamide), 30% Solutol HS15 (30% polyethylene glycol-15 hydroxystearate), and Saline (saline) were added sequentially, the mixture was ultrasonicated and vortex mixed to prepare a 1 mg/mL dosing formulation. The ratio of DMA:30% Solutol HS15:Saline was 5:5:90 (v/v/v).
After overnight fasting, ICR mice in each test compound injection group (9 mice per group) were administered intragastrically (PO, compound dose was 10 mg/kg, administration volume was 10 mL/kg), and food was given 4 hours after administration.
About 0.1 mL of blood was collected via the orbital cavity before administration and at 0.25 h, 0.5 h, 1 h, 2 h, 4 h, 8 h, 10 h, and 24 h after administration, and whole blood samples were placed in anticoagulant tubes containing EDTA-K2. The samples were placed on ice after collection, and plasma was separated by centrifugation (centrifugation conditions: 1500 g, 10 minutes). The collected plasma was stored at -40 to -20 °C before analysis.
The content of the test compound in mouse plasma after intragastric administration was determined by LC-MS/MS.

[2] = test system: RL95-2 cells; assay: Inhibition of RL95-2 cell proliferation (CellTiter-Glo); format: cell-based; conditions: Homo sapiens; RL95-2 cells (MSI-H), 120 hours
Method in brief: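 RL95-2 (MSI-H) cells, 500/well in DMEM/F12 with 10% FBS, adhered overnight, then treated 120 h at 37 °C, 5% CO2 with compound at final 1.52-10000 nM. Viability by CellTiter-Glo luminescence. Inhibition relative to 0.1% DMSO control; IC50 from nonlinear regression of log concentration versus inhibition.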

[3] = test system: SW48 cells; assay: Inhibition of SW48 cell proliferation (CellTiter-Glo); format: cell-based; conditions: Homo sapiens; SW48 cells (MSI-H), 120 hours
Method in brief: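 SW48 (MSI-H) cells in L-15 with 10% FBS were seeded at 500 per well, cultured overnight at 37 °C, then exposed to compound at final concentrations of 10000 nM to 1.52 nM for 120 h. Viability was read by CellTiter-Glo luminescence, with inhibition relative to 0.1% DMSO. IC50 from nonlinear regression of log concentration versus inhibition.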

[4] = target: T1, recombinant human WRN (Homo sapiens, UniProt Q14191); assay: Inhibition of WRN enzyme activity (ATPase), ADP-Glo Kinase Assay; format: biochemical; conditions: WRN protein 5 nM, Flap 0.1 nM, ATP 30 µM; read-out: IC50
T1 construct: purchased BPS 101264
Method in brief: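 Recombinant human WRN (5 nM) was preincubated with compound (1000–0.004 nM) for 15 min at room temperature. Flap26 5'-flap DNA (0.1 nM) and 30 µM ATP were then added for 10 min in Tris pH 7.5, MgCl2, NaCl, BSA, Pluronic buffer. ADP was detected by ADP-Glo luminescence, and IC50 was obtained by nonlinear regression versus a 0.1% DMSO control.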

T1 sequence (Q14191 whole entry): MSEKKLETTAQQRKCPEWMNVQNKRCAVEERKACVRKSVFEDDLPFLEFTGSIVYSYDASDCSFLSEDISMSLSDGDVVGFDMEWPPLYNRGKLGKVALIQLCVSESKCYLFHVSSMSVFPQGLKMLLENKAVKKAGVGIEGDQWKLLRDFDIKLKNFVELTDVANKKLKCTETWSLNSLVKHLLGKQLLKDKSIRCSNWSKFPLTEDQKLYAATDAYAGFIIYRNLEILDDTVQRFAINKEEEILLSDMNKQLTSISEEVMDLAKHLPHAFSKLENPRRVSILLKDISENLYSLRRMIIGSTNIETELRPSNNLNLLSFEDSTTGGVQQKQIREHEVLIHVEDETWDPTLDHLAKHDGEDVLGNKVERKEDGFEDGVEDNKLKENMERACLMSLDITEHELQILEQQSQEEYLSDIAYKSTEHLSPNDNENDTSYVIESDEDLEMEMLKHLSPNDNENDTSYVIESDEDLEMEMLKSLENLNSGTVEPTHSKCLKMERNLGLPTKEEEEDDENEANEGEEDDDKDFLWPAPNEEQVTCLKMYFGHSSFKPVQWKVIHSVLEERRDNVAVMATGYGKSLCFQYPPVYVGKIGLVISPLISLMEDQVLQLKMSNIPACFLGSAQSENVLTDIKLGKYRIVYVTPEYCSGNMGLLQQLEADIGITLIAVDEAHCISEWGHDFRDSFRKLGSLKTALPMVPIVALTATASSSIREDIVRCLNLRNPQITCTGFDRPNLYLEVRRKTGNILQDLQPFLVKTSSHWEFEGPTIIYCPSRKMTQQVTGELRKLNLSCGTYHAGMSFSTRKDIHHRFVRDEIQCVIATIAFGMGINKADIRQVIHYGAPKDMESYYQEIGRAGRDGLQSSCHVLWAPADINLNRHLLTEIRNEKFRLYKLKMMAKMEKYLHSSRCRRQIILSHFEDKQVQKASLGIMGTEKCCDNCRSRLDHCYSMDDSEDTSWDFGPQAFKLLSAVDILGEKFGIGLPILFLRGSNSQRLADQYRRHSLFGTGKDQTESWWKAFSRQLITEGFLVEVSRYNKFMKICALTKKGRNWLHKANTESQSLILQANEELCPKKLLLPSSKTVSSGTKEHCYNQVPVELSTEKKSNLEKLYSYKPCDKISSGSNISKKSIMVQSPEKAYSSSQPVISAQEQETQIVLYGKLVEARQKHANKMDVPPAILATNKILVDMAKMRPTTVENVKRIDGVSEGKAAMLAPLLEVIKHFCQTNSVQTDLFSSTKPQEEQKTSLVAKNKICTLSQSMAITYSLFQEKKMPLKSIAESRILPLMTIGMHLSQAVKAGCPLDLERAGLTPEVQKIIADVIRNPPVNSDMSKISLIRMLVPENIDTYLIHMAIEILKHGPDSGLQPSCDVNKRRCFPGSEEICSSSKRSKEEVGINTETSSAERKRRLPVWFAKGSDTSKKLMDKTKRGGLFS

Row | Structure (SMILES) | AUC(0-t) [1] [ng·h/mL] | half-life [1] [h] | Cmax [1] [ng/mL] | IC50 [2] [nM] | IC50 [3] [nM] | IC50 [4] [nM]
1 | Cc1ncnc(C(=O)N2CCN(c3c(C)n(CC(=O)Nc4ccc(C(F)(F)F)cc4Cl)c4nc(-c5ccc6c(c5)CCO6)nn4c3=O)CC2)c1O [Example 106, N-(2-chloro-4-(trifluoromethyl)phenyl)-2-(2-(2,3-dihydrobenzofuran-5-yl)-6-(4-(5-hydroxy-6-methylpyrimidine-4-carbonyl)piperazin-1-yl)-5-methyl-7-oxo-[1,2,4]triazolo[1,5-a]pyrimidin-4(7H) -yl)acetamide] | 330000 | 4.85 | 45000 | 1 to 100 | 1 to 100 | 1 to 100
2 | CCc1c(N2CCN(C(=O)c3ncnc(C)c3O)CC2)c(=O)n2nc(-c3ccc4c(ccn4C)c3)nc2n1CC(=O)Nc1ccc(C(F)(F)F)cc1Cl [Example 103, N-(2-chloro-4-(trifluoromethyl)phenyl)-2-(5-ethyl-6-(4-(5-hydroxy-6-methylpyrimidine-4-carbonyl)piperazin-1-yl)-2-(1-methyl-1H-indol-5-yl)-7-oxo-[1,2,4]triazolo[1,5-a]pyrimidin-4(7H)-yl)ac etamide] | 24300 | 2.75 | 7120 | 1 to 100 | 1 to 100 | 1 to 100
3 | CCc1c(N2CCN(C(=O)c3ncnc(C)c3O)CC2)c(=O)n2nc(C3=CCCCCC3)nc2n1CC(=O)Nc1ccc(C(F)(F)F)cc1Cl [Example 6, N-(2-chloro-4-(trifluoromethyl)phenyl)-2-(2-(cyclohept-1-en-1-yl)-5-ethyl-6-(4-(5-hydroxy-6-methylpyrimidine-4-carbonyl)piperazin-1-yl)-7-oxo-[1,2,4]triazolo[1,5-a]pyrimidin-4(7H)-yl)acetamide] | 39700 | 1.26 | 15900 | 1 to 100 | 1 to 100 | < 1
4 | CCc1c(N2CCN(C(=O)c3ncnc(C)c3O)CC2)c(=O)n2nc(C3=CCCCCC3)nc2n1CC(=O)Nc1ccc(S(F)(F)(F)(F)F)cc1 [Example 27, 2-(2-(cyclohept-1-en-1-yl)-5-ethyl-6-(4-(5-hydroxy-6-methylpyrimidine-4-carbonyl)piperazin-1-yl)-7-oxo-[1,2,4]triazolo[1,5-a]pyrimidin-4(7H)-yl)-N-(4-(pentafluoro-λ^66-sulfaneyl)phenyl)acet amide] | 66600 | 2.27 | 18100 | 1 to 100 | 1 to 100 | 1 to 100
5 | CCc1c(N2CCN(C(=O)c3ncccc3O)CC2)c(=O)n2nc(C3=CC4CC(O)CC4C3)nc2n1CC(=O)Nc1ccc(C(F)(F)F)cc1Cl (stereo not drawn) [Example 121, N-(2-chloro-4-(trifluoromethyl)phenyl)-2-(5-ethyl-2-(5-hydroxy-1,3a,4,5,6,6a-hexahydropentalen-2-yl)-6-(4-(3-hydroxypicolinoyl)piperazin-1-yl)-7-oxo-[1,2,4]triazolo[1,5-a]pyrimidin-4(7H)-yl) acetamide] | – | – | – | 1 to 100 | 1 to 100 | 1 to 100
6 | CCc1c(N2CCN(C(=O)c3ncnc(C)c3O)CC2)c(=O)n2nc(-c3ccc4sccc4c3)nc2n1CC(=O)Nc1ccc(C(F)(F)F)cc1Cl [Example 54, 2-(2-(benzo[b]thiophen-5-yl)-5-ethyl-6-(4-(5-hydroxy-6-methylpyrimidine-4-carbonyl)piperazin-1-yl)-7-oxo-[1,2,4]triazolo[1,5-a]pyrimidin-4(7H)-yl)-N-(2-chloro-4-(trifluoromethyl)phenyl)acet amide] | – | – | – | 1 to 100 | 1 to 100 | 1 to 100
7 | CCc1c(N2CCN(C(=O)c3ncccc3O)CC2)c(=O)n2nc(C3=CC4COCC4C3)nc2n1CC(=O)Nc1ccc(C(F)(F)F)cc1Cl (stereo not drawn) [Example 159, N-(2-chloro-4-(trifluoromethyl)phenyl)-2-(5-ethyl-6-(4-(3-hydroxypicolinoyl)piperazin-1-yl)-7-oxo-2-(3,3a,4,6a-tetrahydro-1H-cyclopenta[c]furan-5-yl)-[1,2,4]triazolo[1,5-a]pyrimidin-4(7H)-yl) acetamide] | – | – | – | 1 to 100 | 1 to 100 | 1 to 100
8 | CCc1c(N2CCN(C(=O)c3ncnc(C)c3O)CC2)c(=O)n2nc(-c3ccc4c(c3)NCCO4)nc2n1CC(=O)Nc1ccc(C(F)(F)F)cc1Cl [Example 157, N-(2-chloro-4-(trifluoromethyl)phenyl)-2-(2-(3,4-dihydro-2H-benzo[b][1,4]oxazin-6-yl)-5-ethyl-6-(4-(5-hydroxy-6-methylpyrimidine-4-carbonyl)piperazin-1-yl)-7-oxo-[1,2,4]triazolo[1,5-a]pyrimidin-4(7H)-yl)acetamide] | – | – | – | 1 to 100 | 1 to 100 | 1 to 100
9 | CCc1c(N2CCN(C(=O)c3ncnc(C)c3O)CC2)c(=O)n2nc(C3=CC4CC4C3)nc2n1CC(=O)Nc1ccc(C(F)(F)F)cc1Cl (stereo not drawn) [Example 18, 2-(2-(bicyclo[3.1.0]hex-2-en-3-yl)-5-ethyl-6-(4-(5-hydroxy-6-methylpyrimidine-4-carbonyl)piperazin-1-yl)-7-oxo-[1,2,4]triazolo[1,5-a]pyrimidin-4(7H)-yl)-N-(2-chloro-4-(trifluoromethyl)phenyl)acetamide] | – | – | – | 1 to 100 | 1 to 100 | 1 to 100
10 | CCc1c(N2CCN(C(=O)c3ncnc(C)c3O)CC2)c(=O)n2nc(-c3ccc4ccsc4c3)nc2n1CC(=O)Nc1ccc(C(F)(F)F)cc1Cl [Example 55, 2-(2-(benzo[b]thiophen-6-yl)-5-ethyl-6-(4-(5-hydroxy-6-methylpyrimidine-4-carbonyl)piperazin-1-yl)-7-oxo-[1,2,4]triazolo[1,5-a]pyrimidin-4(7H)-yl)-N-(2-chloro-4-(trifluoromethyl)phenyl)acet amide] | – | – | – | 1 to 100 | 1 to 100 | 1 to 100
11 | CCc1c(N2CCN(C(=O)c3ncnc(C)c3O)CC2)c(=O)n2nc(-c3ccc4c(c3)CCO4)nc2n1CC(=O)Nc1ccc(S(F)(F)(F)(F)F)cc1C [Example 88, 2-(2-(2,3-dihydrobenzofuran-5-yl)-5-ethyl-6-(4-(5-hydroxy-6-methylpyrimidine-4-carbonyl)piperazin-1-yl)-7-oxo-[1,2,4]triazolo[1,5-a]pyrimidin-4(7H)-yl)-N-(2-methyl-4-(pentafluoro-λ^6-sulfaneyl)phenyl)acetamide] | – | – | – | 1 to 100 | 1 to 100 | 1 to 100
12 | CCc1c(N2CCN(C(=O)c3ncnc(C)c3O)CC2)c(=O)n2nc(-c3ccc4c(cnn4C)c3)nc2n1CC(=O)Nc1ccc(C(F)(F)F)cc1Cl [Example 113, N-(2-chloro-4-(trifluoromethyl)phenyl)-2-(5-ethyl-6-(4-(5-hydroxy-6-methylpyrimidine-4-carbonyl)piperazin-1-yl)-2-(1-methyl-1H-indazol-5-yl)-7-oxo-[1,2,4]triazolo[1,5-a]pyrimidin-4(7H)-yl) acetamide] | – | – | – | 1 to 100 | 1 to 100 | 1 to 100
13 | CCc1c(N2CCN(C(=O)c3ncnc(C)c3O)CC2)c(=O)n2nc(-c3ccc4occc4c3)nc2n1CC(=O)Nc1ccc(S(F)(F)(F)(F)F)cc1 [Example 97, 2-(2-(benzofuran-5-yl)-5-ethyl-6-(4-(5-hydroxy-6-methylpyrimidine-4-carbonyl)piperazin-1-yl)-7-oxo-[1,2,4]triazolo[1,5-a]pyrimidin-4(7H)-yl)-N-(4-(pentafluoro-λ^6-sulfaneyl)phenyl)acetamide] | 28500 | 2.3 | 9920 | 1 to 100 | 1 to 100 | 1 to 100
